Reference: patent US20080287493A1, “ARYLMETHYLEN SUBSTITUTED N-ACYL-Y-AMINOALCOHOLS” (priority 2007, published 2008)

Assays:
human FSH receptor [1] = biological target: T1, human FSH receptor (Homo sapiens, UniProt P23945); experiment: HTRF assay for measuring cAMP in cells, test for agonism (in the absence of hFSH); assay type: cell-based; conditions: hFSHR clone 16 cells (CHO cells stably transfected with the human FSH receptor), 37° C. for 2 h, read-out: EC50 (FSH agonistic effect in the HTRF assay)
T1 construct: expressed in transfected cells; host or cells: CHO cells (hFSHR clone 16)
T1 sequence (P23945 18-695): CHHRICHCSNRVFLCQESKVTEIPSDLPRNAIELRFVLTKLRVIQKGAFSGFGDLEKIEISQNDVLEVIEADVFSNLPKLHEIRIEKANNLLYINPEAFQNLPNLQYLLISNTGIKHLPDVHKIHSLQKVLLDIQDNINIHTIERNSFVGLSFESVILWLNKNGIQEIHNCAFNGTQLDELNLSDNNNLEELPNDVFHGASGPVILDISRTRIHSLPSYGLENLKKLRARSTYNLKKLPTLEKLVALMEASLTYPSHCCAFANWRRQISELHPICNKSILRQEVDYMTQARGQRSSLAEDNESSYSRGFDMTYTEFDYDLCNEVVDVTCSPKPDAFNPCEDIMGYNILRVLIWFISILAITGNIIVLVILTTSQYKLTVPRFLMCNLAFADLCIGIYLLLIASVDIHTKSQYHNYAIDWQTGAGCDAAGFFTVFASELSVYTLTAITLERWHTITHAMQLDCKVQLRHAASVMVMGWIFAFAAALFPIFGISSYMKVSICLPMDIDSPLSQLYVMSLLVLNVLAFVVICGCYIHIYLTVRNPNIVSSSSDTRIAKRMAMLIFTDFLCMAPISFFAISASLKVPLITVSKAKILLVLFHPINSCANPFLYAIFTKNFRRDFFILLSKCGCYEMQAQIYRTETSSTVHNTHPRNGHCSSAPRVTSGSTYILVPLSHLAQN
Method: (§1) HTRF Assay for Measuring cAMP in Cells
(§2) The method is based on a competitive immunoassay between native cAMP, which has been produced by the cells, and cAMP which is labelled with XL665. The tracer binding was visualized by a monoclonal antibody, anti-cAMP labelled with cryptate [HTRF=homogeneous time-resolved fluorescence].
(§3) The specific signal is inversely proportional to the cAMP concentration of the samples employed.
(§4) The 665 nm/620 nm fluorescence ratio was evaluated.
(§5) The following material was used: 96-well plates for the tissue culture, 96-well plates with black edge and black base (e.g. Fluotrac 600 from Greiner), 96-well plates for the substance dilutions of polypropylene and cAMP Femtomolar (4000 wells Kit, CIS Bio International # 62AM1PEC).
(§6) The following reagents were used: BSA (bovine serum albumin) Fraction V protease-free, IBMX (3-isobutyl-1-methylxanthine), hFSH (human follicle stimulating hormone), Triton X-100 analytical grade, potassium fluoride analytical grade, G 418 (Geneticin) and Accutase.
(§7) Buffer 1 (washing and testing buffer) contained PBS, 1 mM CaCl2, 1 mM MgCl2, 0.2% glucose; 0.1% BSA, 1 mM IBMX. Buffer 2 (2× lysis buffer) contained 1% Triton X-100 in PBS (without CaCl2 and MgCl2). Buffer 3 (assay buffer) contained 50 mM potassium phosphate buffer (pH 7.0); 800 mM potassium fluoride; 0.2% BSA (always added fresh).
(§8) On day 1, the cells were seeded in 96-well plates (3×10^4 cells per well hFSHR clone 16 cells (CHO cells stably transfected with the human FSH receptor in 150 μl of medium). The next day, test substance dilutions were made up. For this purpose, all the substances were diluted in ice-cold buffer 1 (with or without hFSH), and the substance dilutions were placed on ice until applied to the cells.
(§9) The cell supernatant was then aspirated off, and the cells were washed 2× with 200 μl of buffer 1. The cells were treated with 60 μl of the appropriate substance concentrations at 37° C. for 2 h. The cells were then lysed with 60 μl of buffer 2 (put onto the supernatant) (on a plate shaker at RT for 30 min).
(§10) The test conjugates (XL-665 and anti-cAMP cryptate) were diluted in buffer 3 in accordance with the manufacturers' information. The actual mixture for measurement was pipetted into a black 96-well plate (in each case 15 μl of the cell lysate diluted with 35 μl of buffer 1; firstly 25 μl of XL-665 conjugate were pipetted and, after 10 min, 25 μl of the anti-cAMP cryptate were added). This is followed by incubation at RT for 90 minutes. The measurement was carried out in a PheraStar (BMG).
(§11) Dose-effect curve (hFSH) for the human receptor: 1e-8, 3e-9, 1 e-9, 3e-10, 1e-10, 3e-11, 1e-11, 3e-12 mol/l.
(§12) The test substances were employed in suitable dilutions in the absence (test for agonism) and in the presence of 1e-9 mol/l hFSH.
(§13) The values of the well ratio were averaged and then entered directly in SigmaPlot versus the concentrations. The maximum and minimum values were determined for each plate, and half the difference is to be regarded as IC50.

human FSH receptor [2] = biological target: T1, human FSH receptor; experiment: HTRF assay for measuring cAMP in cells, test for antagonism (in the presence of hFSH); assay type: cell-based; conditions: hFSHR clone 16 cells (CHO cells stably transfected with the human FSH receptor); in the presence of 1e-9 mol/l hFSH; 37° C. for 2 h; read-out: IC50 (FSH antagonistic effect in the HTRF assay)
Method: as §1, §2, §3, §4, §5, §6, §7, §8, §9, §10, §11, §12, §13

Row | Structure (SMILES) | EC50 (human FSH receptor [1]) | IC50 (human FSH receptor [2])
1 | CCOc1ccc(-c2cccc(OC)c2)cc1C(=O)N[C@@H](CCO)Cc1c[nH]c2ccccc12 [Example 2, 4-Ethoxy-3′-methoxy-biphenyl-3-carboxylic acid [(R)-3-hydroxy-1-(1H-indol-3-ylmethyl)-propyl]-amide] | > 10 µM | 0.3 µM
2 | CNC(=O)c1ccc(-c2ccc(OC(C)C)c(C(=O)N[C@@H](CCO)Cc3c[nH]c4ccccc34)c2)cc1Cl [Example 3, 3′-Chloro-4-isopropoxy-biphenyl-3,4′-dicarboxylicacid 3-{[(R)-3-hydroxy-1-(1H-indol-3-ylmethyl)-propyl]-amide} 4′-methylamide] | > 10 µM | 0.025 µM
3 | COc1ccccc1C#Cc1ccc(OC(C)C)c(C(=O)N[C@@H](CCO)Cc2c[nH]c3ccccc23)c1 [Example 5, N-[(R)-3-Hydroxy-1-(1H-indol-3-ylmethyl)-propyl]-2-isopropoxy-5-(2-methoxy-phenylethynyl)-benzamide] | > 10 µM | 0.15 µM
4 | COc1ccc2nc(-c3cc(OC)c(OC)c(OC)c3)cc(C(=O)N[C@@H](CCO)Cc3ccc4ccccc4c3)c2c1 [Example 8, 6-Methoxy-2-(3,4,5-trimethoxy-phenyl)-quinoline-4-carboxylic acid ((R)-3-hydroxy-1-naphthalen-2-ylmethyl-propyl)-amide] | 7 µM | > 10 µM
5 | COc1ccc2nc(-c3cc(OC)c(OC)c(OC)c3)cc(C(=O)N[C@@H](CCO)Cc3csc4ccccc34)c2c1 [Example 9, 6-Methoxy-2-(3,4,5-trime-thoxy-phenyl)-quinoline-4-carboxylic acid ((R)-1-benzo-[b]thiophen-3-ylmethyl-3-hydroxy-propyl)-amide] |  | > 10 µM
6 | COc1ccc2nc(-c3cc(OC)c(OC)c(OC)c3)cc(C(=O)N[C@@H](CCO)Cc3ccsc3)c2c1 [Example 12, 6-Methoxy-2-(3,4,5-trime-thoxy-phenyl)-quinoline-4-carboxylic acid ((R)-3-hydroxy-1-thiophen-3-yl-methyl-propyl)-amide] | 5 µM | > 10 µM
7 | COc1ccc2nc(-c3cc(OC)c(OC)c(OC)c3)cc(C(=O)N[C@H](CCO)Cc3c[nH]c4ccccc34)c2c1 [Example 14, 6-Methoxy-2-(3,4,5-trimethoxy-phenyl)-quinoline-4-carboxylic acid [(S)-3-hydroxy-1-(1H-indol-3-yl-methyl)-propyl]-amide] | 6 µM | > 10 µM
8 | COc1ccc2nc(-c3cc(OC)c(OC)c(OC)c3)cc(C(=O)N[C@H](CCO)Cc3ccccc3)c2c1 [Example 17, 6-Methoxy-2-(3,4,5-trime-thoxy-phenyl)-quinoline-4-carboxylic acid ((S)-1-benzyl-3-hydroxy-propyl)-amide] | 8 µM | > 10 µM
